In US20250243190A1, “NEW DEUTERATED RORGAMMA/RORGAMMAT INVERSE AGONISTS” (IMMUNIC AG, priority 2022, published 2025):

Columns and labels:
[1] = Microsomal stability, human liver microsomes
Method: (§1) The conversion to the metabolite was monitored by HPLC-MS/MS. Verapamil served as positive control.
(§2) The metabolism was monitored by HPLC-MS/MS. Verapamil served as positive control. The intrinsic clearance was calculated from the measured remaining compound values.
as §2

RORγt = target: T1, RORγt (Homo sapiens, UniProt P51449); experiment: Indigo Biosciences Human RAR-related Orphan Receptor, Gamma Reporter Assay (in vitro inhibition of RORγt); format: cell-based; settings: RORγt reporter cells, luciferase readout, 22-24 h incubation; read-out: IC50 range
T1 sequence (P51449 269-508 limits assumed): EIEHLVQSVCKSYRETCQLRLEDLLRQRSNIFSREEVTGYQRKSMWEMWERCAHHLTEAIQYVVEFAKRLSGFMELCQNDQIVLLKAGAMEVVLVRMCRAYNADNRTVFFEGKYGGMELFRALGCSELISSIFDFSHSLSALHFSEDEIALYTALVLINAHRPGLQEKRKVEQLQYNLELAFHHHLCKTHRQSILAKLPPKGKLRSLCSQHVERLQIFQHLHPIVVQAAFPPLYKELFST
Method: The in vitro inhibition of RORγt was measured using Indigo Biosciences Human RAR-related Orphan Receptor, Gamma Reporter Assay System (Product #IB304001-32) as described in the technical manual. In brief, 200 μL of Reporter Cells is dispensed into wells of the assay plate and preincubated for 4-6 h. Following the pre-incubation period, culture media are discarded and 200 µL/well of the prepared 1×-concentration treatment media are added. Following 22-24 h incubation, treatment media are discarded and Luciferase Detection Reagent is added. The intensity of light emission (in units of ‘Relative Light Units’; RLU) from each assay well is quantified using a plate-reading luminometer. Average values of RLU were determined for each treatment concentration. Non-linear regression analyses were performed and IC50 values determined using GraphPad Prism software. Provided inverse-agonists ursolic acid served as positive control.

[2] = Microsomal stability, rat liver microsomes; settings: 60 min
Method: as §1, §2

[3] = Microsomal stability, mouse liver microsomes; settings: mouse, 60 min
Method: as §1
The metabolism was monitored by HPLC-MS/MS.
Verapamil served as positive control. The intrinsic clearance was calculated from the measured remaining compound values.

[4] = Rat pharmacokinetics, oral or intravenous cassette dosing; format: in vivo, rats (strain Wistar RjHAN); settings: for AUC(0-inf) / AUC(0-t) / C0 / CL/F / Cmax / bioavailability: Wistar RjHAN, rat, plasma; for bioavailability: po 5 mg/kg vs iv 1 mg/kg
Method: The pharmacokinetics of the deuterated compounds of the present invention was evaluated in 3 male and 3 female rats (strain Wistar RjHAN, 7-8 week old) after oral or intravenous cassette dosing to asses the oral bioavailability. Rats are provided with a catheter in the jugular vein (2-3 days prior to blood sampling). At each designated time point (1, 2, 4, 8 and 24 h after dosing), 100 μL blood were collected into Li-heparin tubes, stored on ice until centrifugation (10 minutes at 3000 g, 4° C.) and plasma was prepared within 45 min after collection, frozen at −20° C. and stored at this temperature until processed for LC-MS analysis.

[5] = Mouse pharmacokinetics, oral or intravenous cassette dosing; format: in vivo, mice (C57BL/6J); settings: C57BL/6J, whole blood; for bioavailability: 5 mg/kg oral vs 1 mg/kg intravenous, read-out: F (bioavailability)
Method: The pharmacokinetics of the compounds of the present invention was evaluated in 3 male and 3 female mice (C57BL/6J, 8 week old) after oral or intravenous cassette dosing to assess the oral bioavailability. Dose was 5 mg/kg (oral) and 1 mg/kg (intravenous), application volume was 5 mL/kg (oral) and 0.5 mL/kg (intravenous), vehicle was 5% solutol, 95% NaCl solution (at 0.9% saline concentration) for oral and 5% solutol, 5% Ethanol, 90% NaCl solution (at 0.9% saline concentration) for intravenous. At each designated time point (0.25, 0.5, 1, 2, 4, 8 and 24 h after dosing), 20 μL whole blood were collected from the tail vein into Li-heparin tubes, frozen on dry ice within 1-2 minutes of sampling and stored at −20° C. until processed for LC-MS analysis. The obtained data is as follows:
(§3) The pharmacokinetics of additional compounds of the present invention was evaluated in 3 female mice (C57BL/6J, 8 week old) after oral cassette dosing. Dose was 5 mg/kg, application volume was 5 mL/kg, vehicle was 5% solutol, 95% NaCl solution (at 0.9% saline concentration). At each designated time point (0.5, 1, 2, 4, 8 and 24 h after dosing), 20 μL whole blood were collected from the tail vein into Li-heparin tubes, frozen on dry ice within 1-2 minutes of sampling and stored at −20° C. until processed for LC-MS analysis. The obtained data is as follows:
as §3, with “(0.25, 0.5,” for “(0.5,”, “4 and” for “4,”, “8” for “8 and 24”, “analysis.” for “analysis. The obtained data is as follows:”

SARS-CoV-2 = experiment: Antiviral activity on SARS-CoV-2, viral replication (YFP) assay; format: cell-based; settings: Severe acute respiratory syndrome coronavirus 2, read-out: EC50 range
Source text: (§4) The assay for viral replication (YFP) and the cell viability assay has been described in general in Pathogens 2021; 10:1076 and applied to compounds of the present invention furnished the following results: […]

[6] = Cell viability assay accompanying the SARS-CoV-2 assay; format: cell-based; settings: cell viability assay of the SARS-CoV-2 test
Source text: as §4

[7] = 3 female mice, 5 mg/kg oral cassette, sampling 0.25-8 h
[8] = 3 female mice, 5 mg/kg oral cassette, sampling 0.25-8 h, read-out: AUC0-8 h

CC(O)Cn1ncc(-c2onc(-c3c(F)cccc3Cl)c2-c2ncccn2)c1C(F)(F)F (stereo not shown) [Comparative Example C1/2, reference compound]
microsomal CLint ([1]; both): 15.7 µL/min/mg

[2H]C(C)(O)Cn1ncc(-c2onc(-c3c(F)cccc3Cl)c2-c2ncccn2)c1C(F)(F)F (stereo not shown) [Comparative Example C1/1, reference compound]
microsomal CLint ([1]; both): 10.5 µL/min/mg

[2H]C([2H])(CC(C)(C)O)n1ncc(-c2onc(-c3c(F)cccc3Cl)c2-c2ncccn2)c1C(F)(F)F [Example 3, 4-(4-(3-(2-Chloro-6-fluorophenyl)-4-(pyrimidin-2-yl)isoxazol-5-yl)-5-(trifluoromethyl)-1H-pyrazol-1-yl)-2-methylbutan-4,4-d2-2-ol]
IC50 (RORγt): 0.01 to 0.1 µM | microsomal CLint ([2]; rat liver microsomes batch 1910100 (Xenotech)): 31.4 µL/min/mg | microsomal CLint ([2]; rat liver microsomes batch 4085002 (Corning)): 29.7 µL/min/mg | microsomal CLint ([2]; rat liver microsomes batch 9078001 (Corning)): 30.2 µL/min/mg | microsomal CLint ([3]; female, mouse liver microsomes batch 4338001 female (Corning)): 43.9 µL/min/mg | microsomal CLint ([3]; female, mouse liver microsomes batch MDO female (Bioreclamation IVT)): 50.3 µL/min/mg | microsomal CLint ([3]; male, mouse liver microsomes batch 0010003 male (Corning)): 24 µL/min/mg | microsomal CLint ([1]; both): 2.2 µL/min/mg | microsomal CLint ([1]; male): 1.1 µL/min/mg | AUC(0-inf) ([4]; female rats, iv 1 mg/kg): 3780 ng·h/mL | AUC(0-t) ([4]; female rats, iv 1 mg/kg): 3660 ng·h/mL | C0 ([4]; female rats, iv 1 mg/kg): 2090 ng/mL | AUC(0-inf) ([4]; female rats, po 5 mg/kg): 2950 ng·h/mL | AUC(0-t) ([4]; female rats, po 5 mg/kg): 2930 ng·h/mL | CL/F ([4]; female rats, po 5 mg/kg): 132 mL/min/kg | Cmax ([4]; female rats, po 5 mg/kg): 629 ng/mL | bioavailability ([4]; female rats): 16% | AUC(0-inf) ([4]; male rats, iv 1 mg/kg): 3970 ng·h/mL | AUC(0-t) ([4]; male rats, iv 1 mg/kg): 3720 ng·h/mL | C0 ([4]; male rats, iv 1 mg/kg): 2460 ng/mL | AUC(0-inf) ([4]; male rats, po 5 mg/kg): 692 ng·h/mL | AUC(0-t) ([4]; male rats, po 5 mg/kg): 649 ng·h/mL | CL/F ([4]; male rats, po 5 mg/kg): 343 mL/min/kg | Cmax ([4]; male rats, po 5 mg/kg): 215 ng/mL | bioavailability ([4]; male rats): 3.5% | t1/2z ([4]; female rats, iv 1 mg/kg): 6.6 h | t1/2z ([4]; female rats, po 5 mg/kg): 3.2 h | t1/2z ([4]; male rats, iv 1 mg/kg): 7.2 h | t1/2z ([4]; male rats, po 5 mg/kg): 1.9 h | bioavailability ([5]; female mice): 34% | half-life ([5]; female mice, 5 mg/kg oral, cassette): 1.5 h | AUC(0-t) ([5]; female mice, 5 mg/kg oral, cassette, read-out: AUC0-24 h): 771 ng·h/mL | Cmax ([5]; female mice, 5 mg/kg oral, cassette, sampling to 24 h): 301 ng/mL | bioavailability ([5]; male mice): 93% | half-life ([5]; male mice, 5 mg/kg oral, cassette): 2.3 h | AUC(0-t) ([5]; male mice, 5 mg/kg oral, cassette, read-out: AUC0-24 h): 1040 ng·h/mL | Cmax ([5]; male mice, 5 mg/kg oral, cassette, sampling to 24 h): 392 ng/mL | EC50 (SARS-CoV-2): < 0.1 µM | CC50 [6]: 22 µM

[2H]C([2H])(OC([2H])(C([2H])([2H])[2H])C([2H])([2H])[2H])c1c(-c2c(F)cccc2Cl)noc1-c1cnn(-c2cccc(Cl)c2)c1C(F)(F)F [Example 102/2]
IC50 (RORγt): < 0.01 µM | Cmax [5, 7]: 112 ng/mL | half-life [5, 7]: 2.8 h | AUC(0-t) [5, 8]: 280 ng·h/mL | EC50 (SARS-CoV-2): < 0.1 µM | CC50 [6]: > 100 µM

[2H]C(C)(O)C([2H])([2H])n1ncc(-c2onc(-c3c(F)cccc3Cl)c2-c2ncccn2)c1C(F)(F)F (stereo not shown) [Example 1/1, 1-(4-(3-(2-Chloro-6-fluorophenyl)-4-(pyrimidin-2-yl)isoxazol-5-yl)-5-(trifluoromethyl)-1H-pyrazol-1-yl)propan-1,1,2-d3-2-ol]
IC50 (RORγt): 0.01 to 0.1 µM | microsomal CLint ([1]; both): 7.8 µL/min/mg

[2H]C([2H])(CC(C)(C)O)n1ncc(-c2onc(-c3c(F)cccc3Cl)c2C(=O)OC)c1C(F)(F)F [Example 7, Methyl 3-(2-chloro-6-fluorophenyl)-5-(1-(3-hydroxy-3-methylbutyl-1,1-d2)-5-(tri-fluoromethyl)-1H-pyrazol-4-yl)isoxazole-4-carboxylate]
IC50 (RORγt): 0.01 to 0.1 µM | EC50 (SARS-CoV-2): < 0.1 µM | CC50 [6]: 20 µM

[2H]C([2H])(OC(C)C)c1c(-c2c(F)cccc2Cl)noc1-c1cnn(-c2cccc(Cl)c2)c1C(F)(F)F [Example 102/1]
IC50 (RORγt): < 0.01 µM | Cmax [5, 7]: 922 ng/mL | half-life [5, 7]: 2.6 h | AUC(0-t) [5, 8]: 2350 ng·h/mL | EC50 (SARS-CoV-2): < 0.1 µM | CC50 [6]: > 100 µM

[2H]C([2H])(OC1CC1)c1c(-c2c(F)cccc2Cl)noc1-c1cnn(C([2H])([2H])CC(C)(C)O)c1C(F)(F)F [Example 9, 4-(4-(3-(2-Chloro-6-fluorophenyl)-4-(cyclopropoxymethyl-d2)isoxazol-5-yl)-5-(trifluoro-methyl)-1H-pyrazol-1-yl)-2-methylbutan-4,4-d2-2-ol]
IC50 (RORγt): 0.01 to 0.1 µM | EC50 (SARS-CoV-2): 0.1 to 1 µM | CC50 [6]: 18 µM

[2H]C([2H])([2H])OC([2H])([2H])c1c(-c2c(F)cccc2Cl)noc1-c1cnn(-c2cccc(Cl)c2)c1C(F)(F)F [Example 110, 3-(2-Chloro-6-fluorophenyl)-5-(1-(3-chlorophenyl)-5-(trifluoromethyl)-1H-pyrazol-4-yl)-4-((methoxy-d3)methyl-d2)isoxazole]
IC50 (RORγt): < 0.01 µM | EC50 (SARS-CoV-2): < 0.1 µM | CC50 [6]: > 100 µM

[2H]C([2H])([2H])OC(=O)c1c(-c2c(F)cccc2Cl)noc1-c1cnn(C([2H])([2H])CC(C)(C)O)c1C(F)(F)F [Example 7/2, Methyl-d3 3-(2-chloro-6-fluorophenyl)-5-(1-(3-hydroxy-3-methylbutyl-1,1-d2)-5-(tri-fluoromethyl)-1H-pyrazol-4-yl)isoxazole-4-carboxylate]
IC50 (RORγt): 0.01 to 0.1 µM | EC50 (SARS-CoV-2): < 0.1 µM | CC50 [6]: 63 µM

[2H]C([2H])(CC(C)(C)O)n1ncc(-c2onc(-c3c(F)cc(OCCN4CCOCC4)cc3Cl)c2-c2ncccn2)c1C(F)(F)F [Example 6, 4-(4-(3-(2-Chloro-6-fluoro-4-(2-morpholinoethoxy)phenyl)-4-(pyrimidin-2-yl)isoxazol-5-yl)-5-(trifluoromethyl)-1H-pyrazol-1-yl)-2-methylbutan-4,4-d2-2-ol]
IC50 (RORγt): 0.1 to 1 µM | EC50 (SARS-CoV-2): 0.1 to 1 µM | CC50 [6]: 27 µM

[2H]C([2H])(CC(C)(C)O)n1ncc(-c2onc(-c3c(F)cccc3Cl)c2-c2ncccn2)c1C1CC1 [10/3]
IC50 (RORγt): 0.1 to 1 µM | EC50 (SARS-CoV-2): 0.1 to 1 µM | CC50 [6]: > 100 µM
